Laboratory results published in US20060171945A1, “Ip receptor antagonists for the treatment of pathological uterine conditions” (priority 2003, published 2006).
“And” between values parts separate entries of the source, which are not always exact repeats. Identical values can stand only once.

How the values were obtained:
PGES = biological target: T1, PGES (Homo sapiens, UniProt O14684); conditions: read-out: IC50 for inhibition of PGES activity; cited from earlier work
T1 sequence (O14684 1-152): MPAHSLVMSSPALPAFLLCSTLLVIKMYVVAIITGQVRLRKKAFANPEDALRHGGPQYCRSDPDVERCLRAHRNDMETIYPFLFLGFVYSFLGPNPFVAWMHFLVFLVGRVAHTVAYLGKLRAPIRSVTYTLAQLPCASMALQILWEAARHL

[1] = test system: endometrial epithelial and stromal cells; conditions: previously reported; cited from earlier work
IP receptor [2] = biological target: T2, IP receptor (Homo sapiens, UniProt P43119); experiment: Cyclic AMP assay in Ishikawa cells; assay type: cell-based; conditions: 100 nM iloprost, 10 min, n=3, mean±SEM
T2 construct: from tissue; host or cells: minced human endometrial biopsy tissue
T2 sequence (P43119 whole entry): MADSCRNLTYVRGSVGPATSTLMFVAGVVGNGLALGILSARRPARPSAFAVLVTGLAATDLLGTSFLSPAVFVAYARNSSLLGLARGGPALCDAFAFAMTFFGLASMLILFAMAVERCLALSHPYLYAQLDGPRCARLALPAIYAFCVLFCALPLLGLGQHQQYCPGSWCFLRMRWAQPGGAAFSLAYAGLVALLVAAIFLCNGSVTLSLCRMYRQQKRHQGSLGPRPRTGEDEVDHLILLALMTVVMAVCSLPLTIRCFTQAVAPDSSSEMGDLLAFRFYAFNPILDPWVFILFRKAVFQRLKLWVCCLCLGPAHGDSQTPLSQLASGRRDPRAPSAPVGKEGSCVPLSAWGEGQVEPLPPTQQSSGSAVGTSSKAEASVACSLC
Excerpt: (§1) The Ishikawa endometrial epithelial cell line (Ishikawa cells) and endometrial stromal (ES) cells were propagated in DMEM F12 culture medium with glutamax (Invitrogen Ltd., Paisley, UK) supplemented with 10% foetal bovine serum (PAA Laboratories Ltd., Yeovil, UK). Endometrial stromal cells were a generous gift from Professor R W Kelly and they were derived from human endometrial biopsy tissue as described previously (Dunn et al (2002) J Clin Endocrinol Metab 87, 1898-1901). For cyclic AMP assay, cells were grown in 6 well plates to 70% confluence. They were starved overnight in serum free medium in the presence of indomethacin (3 μg/ml). Cells were then incubated in the same medium containing 1-methyl-3-isobutylxanthine at 37° C. for 30 minutes and treated with control medium or 100 nM iloprost for 10 minutes at 37° C. […] Data are presented as mean±SEM percentage increase in cAMP after treatment with iloprost, where the increase was calculated relative to the control samples. […] Proliferation was assessed using a colorimetric method, the CellTiter 96 Aqueous One Solution Cell Proliferation Assay (Promega, Southampton, UK) according to manufacturer's instructions. Twenty microlitres of the assay reagent (containing a tetrazolium compound, inner salt and an electron coupling reagent) were added to each well and samples were incubated at 37° C. for 2 hours and plates were read at 492 nm. […]

IP receptor [3] = biological target: T2, IP receptor; experiment: Cyclic AMP assay in endometrial stromal (ES) cells; assay type: cell-based; conditions: 100 nM iloprost, 10 min, n=3, mean±SEM
Excerpt: as §1

[4] = test system: endometrial stromal (ES) cells; experiment: Proliferation assay (CellTiter 96) in ES cells; assay type: cell-based, human; conditions: 100 nM iloprost, 24 hours, n=6, mean±SEM
Excerpt: as §1

IP receptor [5] = biological target: T2, IP receptor; experiment: Whole tissue cyclic AMP assay in endometrial biopsy tissue; assay type: cell-based; conditions: 100 nM iloprost, 10 min, n=4
Procedure: Endometrial biopsies from across the menstrual cycle (n=8) were minced finely with scissors and divided into three portions. The tissue was incubated is overnight at 37° C. in a humidified 5% CO2 incubator in 2 ml RPMI (Sigma, UK) medium containing, 2 mmol” L-glutamine, 100 IU penicillin and 100 μg streptomycin and 3 μg/ml indomethacin (Sigma, Poole, UK). Following overnight incubation, the tissue was incubated in the same medium containing 1-methyl-3-isobutylxanthine (Sigma) at 37° C. for 30 min. It was then treated with control medium or 100 nM iloprost (a gift from Schering Health Care, Burgess Hill, UK) for 10 min. at 37° C. and lysed in 0.1M HCl and frozen until assayed. cAMP concentration was measured by ELISA (Biomol, Affiniti, Exeter, UK) according to the manufacturer's instructions and normalised to protein concentration determined by a modification of the method of Lowry (Bio-Rad, Hemel Hempstead, UK).

[6] = test system: Ishikawa endometrial epithelial cell line; experiment: Proliferation assay (CellTiter 96) in Ishikawa cells; assay type: cell-based, human; conditions: 100 nM iloprost, 24 hours, n=5, mean±SEM
Excerpt: as §1

COX-2 = biological target: T3, COX-2 (Homo sapiens, UniProt P35354); conditions: cited from earlier work
T3 sequence (P35354 18-604): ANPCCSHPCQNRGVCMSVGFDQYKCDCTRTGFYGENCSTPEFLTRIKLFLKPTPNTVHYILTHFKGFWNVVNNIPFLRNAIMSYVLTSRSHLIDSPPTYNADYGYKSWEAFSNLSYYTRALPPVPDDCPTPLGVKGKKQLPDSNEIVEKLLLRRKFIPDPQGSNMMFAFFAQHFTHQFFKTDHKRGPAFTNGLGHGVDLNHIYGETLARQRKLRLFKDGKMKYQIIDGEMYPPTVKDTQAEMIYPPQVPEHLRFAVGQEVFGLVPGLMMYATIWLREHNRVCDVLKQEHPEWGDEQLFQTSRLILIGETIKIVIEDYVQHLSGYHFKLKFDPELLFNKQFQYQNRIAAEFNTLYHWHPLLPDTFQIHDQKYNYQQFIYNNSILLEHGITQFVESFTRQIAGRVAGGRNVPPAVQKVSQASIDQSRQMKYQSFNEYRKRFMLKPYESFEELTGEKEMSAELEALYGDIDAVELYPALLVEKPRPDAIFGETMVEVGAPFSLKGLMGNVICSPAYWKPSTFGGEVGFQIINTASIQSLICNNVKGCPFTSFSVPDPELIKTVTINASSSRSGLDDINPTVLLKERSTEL

FP receptor = conditions: cited from earlier work
EP4 = conditions: 10 μM; cited from earlier work
EP2 = EP2 (Homo sapiens, UniProt P43116); conditions: 10 μM; cited from earlier work
Sequence of EP2 (P43116 whole entry): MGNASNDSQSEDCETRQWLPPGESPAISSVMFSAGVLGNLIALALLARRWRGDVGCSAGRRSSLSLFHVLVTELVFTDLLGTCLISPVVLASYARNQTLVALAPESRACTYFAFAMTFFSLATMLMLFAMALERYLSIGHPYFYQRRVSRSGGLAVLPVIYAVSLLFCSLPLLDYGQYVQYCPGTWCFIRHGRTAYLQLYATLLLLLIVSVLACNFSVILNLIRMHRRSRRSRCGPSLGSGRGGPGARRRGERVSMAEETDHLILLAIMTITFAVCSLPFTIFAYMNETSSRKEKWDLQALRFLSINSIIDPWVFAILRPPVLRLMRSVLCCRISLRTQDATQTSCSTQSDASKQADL

DP = conditions: 10 μM; cited from earlier work
TP = conditions: 10 μM; cited from earlier work

CSc1ccc(/C=C2/C(C)=C(CC(=O)O)c3cc(F)ccc32)cc1 [sulindac sulphide]
IC50 (PGES): 80 µM

CCCCC[C@H](O)/C=C/[C@@H]1[C@@H](C/C=C\CCCC(=O)O)[C@@H](O)C[C@H]1O [PGF2α]
increase in proliferation [1]: 31%

CC#CCC(C)[C@H](O)/C=C/[C@@H]1[C@H]2C/C(=C/CCCC(=O)O)C[C@H]2C[C@H]1O (stereo partly shown) [iloprost]
cAMP generation, of control values (IP receptor [2]): 166%±27.6%
cAMP generation, of control values (IP receptor [3]): 37,936%±18,464%
proliferation, of control values [4]: 112%±3.8%
fold increase in cAMP generation (IP receptor [5]; samples from proliferative phase of the menstrual cycle): 4.83±0.74 fold
fold increase in cAMP generation (IP receptor [5]; samples from secretory phase of the menstrual cycle): 2.07±0.38 fold and 2.07±0.39 fold
proliferation, of control values [6]: 109.4%±2.4%

CS(=O)(=O)Nc1cc2c(cc1Sc1ccc(F)cc1F)C(=O)CC2 [L 475 L337]
specificity for COX-2 inhibition over COX-1 inhibition (COX-2): 500 fold

Cc1ccc(S(=O)(=O)NC(=O)NN2CCCCCC2)cc1 [tolazamide]
FP receptor antagonist potency (FP receptor): very weak antagonists

CCCCNC(=O)NS(=O)(=O)c1ccc(C)cc1 [tolbutamide]
FP receptor antagonist potency (FP receptor): very weak antagonists

O=C(O)CCC/C=C\C[C@@H]1[C@@H](/C=C/[C@H](O)C2Cc3ccccc3C2)[C@@H](F)C[C@@H]1O [AL-8810, (5Z, 13E)-(9S, 11S,15R)-9,15-dihydroxy-11-fluoro-15-(2-indanyl)-16, 17, 18, 19, 20-pentanor-5,13-prostadienoic acid]
inhibition of functional responses of EP4 receptor (EP4): not to significantly inhibit
inhibition of functional responses of EP2 receptor (EP2): not to significantly inhibit
inhibition of functional responses of DP receptor (DP): not to significantly inhibit
inhibition of functional responses of TP receptor (TP): not to significantly inhibit
FP receptor antagonist potency (FP receptor): micromolar potency

CCCCC/C=C\C\C=C/C=C/C=C/[C@@H](SC[C@H](NC(=O)CC[C@H](N)C(=O)O)C(=O)NCC(=O)O)[C@@H](O)CCCC(=O)O [leukotriene C4]
IC50 (PGES): 5 µM

CS(=O)(=O)Nc1ccc([N+](=O)[O-])cc1Oc1ccccc1 [Nimesulide, N-(4-nitro-2-phenoxyphenyl) methanesulfonamide]
specificity for COX-2 inhibition over COX-1 inhibition (COX-2): 100 fold

CCCCC[C@H](O)/C=C/[C@H]1[C@H](O)CC(=O)[C@@H]1C/C=C\CCCC(=O)O [PGE2]
increase in proliferation [1]: 25%
